Experiments:
Chang cells = assay: 2-deoxy-[3H]-D-glucose uptake assay; assay type: cell-based; details: Chang cell cultures, 3 hrs exposure
Protocol: The glucose uptake of RX-1 and selected analogues after administration of test compounds to Chang cell cultures were determined in an operating protocol for the 2-deoxy-[^3H]-D-glucose. The protocol, which is described in more detail below, has been designed to test for the RX-1 (and RX-1 analogues) mediated glucose uptake. In Table the EC50 values for the uptake for RX-1 and representative analogues is shown.
Stock solutions of the RX-1 analogues supplied in cryo vials (DrugMode) was prepared by diluting the compound with […] sterile tissue culture grade water. This will yield a 5 mM stock solution. If the analogue […] an additional 50 μl methanol will be added (this will be recorded clearly on the log sheet). This will yield a 4 mM stock solution. Stock solutions will be kept on ice at all times and analogues will be stored in 20 μl aliquots at −80 C for subsequent use. Tubes that have been thawed will be clearly marked on the label.
RX-1 (10 μM) Positive Control Solution • To prepare a 10 μM RX-1 solution as positive control. Add 30 μl to 2970 μl modified DMEM media supplemented with 8 mM glucose.
RX-1 Analogue (31.6 μM) Test Solutions • To prepare a 31.6 μM RX-1 analogue test solution. Add 19 μl of the 5 mM to 2981 μl modified DMEM media supplemented with 8 mM glucose. To prepare a 31.6 μM RX-1 analogue test solution from a 4 mM stock solution, add 24 μl to 2976 μl modified DMEM media supplemented with 8 mM glucose.
Cell Seeding in 24-Well Plates • Chang cells are cultured according to procedures described in MRC cell culture SOPs: TC-B2a Thawing of cells and TC-B1a Cell line maintenance—general principles. Make sure cells are in the log phase (i.e. <70% confluence) and less than 20 passages. • Harvest cells using 0.25% (w/v) Trypsin/0.53 mM EDTA solution. • Count cells and resuspend to 30 000 cells/ml (Chang cell seeding density for 24-well plate=30 000 cells/ml) in EMEM (with pyruvate and NEAA, but without L-glutamate (Lonza, USA) containing 10% FBS (Gibco, UK) and pipette 1 ml/well cell suspension to a 24-well plate corresponding to 30 000 cells/well.
• after 3 days of cell growth, aspirate medium • wash cells once with pre-warmed DPBS at 37° C. • add 500 μl of pre-warmed 37° C. DMEM/0.1% BSA (without phenol red, glucose and pyruvate) to serum starve cells to remove residual glucose and FBS • incubate at 37° C. in humidified air and 5% CO2 for 30 min • aspirate DMEM/0.1% BSA (without phenol red, glucose and pyruvate) • Prepare test dilutions as specified in the plate layout (see below) • add 500 μl pre-warmed 37° C. of test dilution per well according to plate layout • incubate at 37° C. in humidified air and 5% CO2 for 3 hrs • remove test medium and wash cells once with DPBS (37° C.) • add 250 μl of test medium containing 0.5 μCi/ml ^3H-2-DOG to each well use (0.5 μl ^3H to 1 ml medium) • Incubate cells at 37° C. in humidified air and 5% CO2 for 15 min • Aspirate medium • To stop the reaction, wash cells twice with ice-cold DPBS • Aspirate DPBS and ensure that wells are as dry as possible • Lyse cells by adding 1 ml of 0.3N NaOH/1% SDS and incubate at 37° C. for at least 45 min • Mix cell lysate thoroughly before subsequent use in LSC and Bradford protein determination

[1] = system: glucose stimulated insulin secretion; assay: Glucose stimulated insulin secretion rate AUC in prediabetic vervet monkeys (FIG. 2); assay type: in vivo; details: versus untreated
Protocol: Prediabetic vervet monkeys (fasting plasma glucose levels between 4.0 and 5.5 mM) were treated with 10 ug/kg RX-1 3 times daily with meals for 7 days. Blood samples were collected following 1.75 g/kg oral glucose stimulation at 0, 5, 10, 15, 30, 60, 90, 120 and 180 minutes. AUC values calculated mean glucose stimulated insulin secretion values over the time interval 0-120 min. Four monkeys were used in each group (untreated, RX1-treated).

- EC50 (Chang cells): 3.22 µM
Structure (SMILES): O=C(O)/C(=C/c1ccccc1)O[C@@H]1O[C@H](CO)[C@@H](O)[C@H](O)[C@H]1O [RX-1, 3-Phenyl-2-(3,4,5-trihydroxy-6-hydroxymethyl-tetrahydro-pyran-2-yloxy)-acrylic acid]
- glycaemic control ([1]; 10 ug/kg 3 times daily for 7 days): better glycaemic control
- decrease of glucose stimulated insulin secretion (AUC 0-120 min) ([1]; 10 ug/kg 3 times daily with meals for 7 days, 1.75 g/kg oral glucose stimulation, FIG. 2): 46%

From patent publication US10174065B2, “Antidiabetic enolic glucoside of phenylpyruvic acid” (ZADEC APS, priority 2010, dated 2019)
